Data on 26 molecules can be found in patent publication US20230365592A1 (Agios Pharmaceuticals, Inc., priority 2022, published 2023).

In the assay the target is T1, human PAH with the R408W mutation (Homo sapiens, UniProt P00439, R408W).
T1 construct: expressed in transfected cells
T1 sequence (P00439 1-452 R408W): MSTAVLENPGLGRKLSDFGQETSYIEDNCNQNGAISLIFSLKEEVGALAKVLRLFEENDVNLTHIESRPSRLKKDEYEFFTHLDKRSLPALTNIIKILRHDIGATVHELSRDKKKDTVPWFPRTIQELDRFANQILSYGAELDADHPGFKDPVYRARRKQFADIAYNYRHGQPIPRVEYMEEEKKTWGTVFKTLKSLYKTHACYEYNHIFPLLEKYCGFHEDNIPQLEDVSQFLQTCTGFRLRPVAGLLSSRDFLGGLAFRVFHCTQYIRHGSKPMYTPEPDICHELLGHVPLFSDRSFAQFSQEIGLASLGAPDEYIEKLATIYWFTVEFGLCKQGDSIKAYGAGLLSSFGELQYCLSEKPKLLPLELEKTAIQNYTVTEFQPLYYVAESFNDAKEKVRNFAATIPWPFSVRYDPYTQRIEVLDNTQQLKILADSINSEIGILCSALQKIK
The experiment in a line: Cell Based Phenylalanine Flux Assay.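 Further: after compound treatment, cells received sepiapterin plus isotope-labelled Phenylalanine for 4 hours, then labelled Tyrosine in the medium was quantified, 10-point 2-fold dilution series run in duplicate.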 The settings on record: A375 cells expressing human R408W PAH; 24 hrs compound incubation; 13C-Tyrosine by LC-MS; average where tested multiple times; read-out: AC50.
One may read the AC50 as the concentration at which the activity in the assay is half-maximal. Take `O=C(N1CCc2[nH]cnc2[C@H]1c1cc2ccccn2n1)C(F)(F)C1(O)CCC1` [Example 638, (S)-2,2-difluoro-2-(1-hydroxycyclobutyl)-1-(4-(pyrazolo[1,5-a]pyridin-2-yl)-6,7-dihydro-1H-imidazo[4,5-c]pyridin-5(4H)-yl)ethanone]: the AC50 was less than 500 nM.

Take `O=C(N1CCc2[nH]cnc2[C@@H]1c1cc2ccccn2n1)C(F)(F)C1(O)CCC1` [Example 639, (R)-2,2-difluoro-2-(1-hydroxycyclobutyl)-1-(4-(pyrazolo[1,5-a]pyridin-2-yl)-6,7-dihydro-1H-imidazo[4,5-c]pyridin-5(4H)-yl)ethanone]: the concentration at half-maximal activity (AC50) was in the range of 1000 to 5000 nM.

As to `O=C(c1nnc(-c2ccc(C(F)(F)F)cc2)o1)N1CCc2[nH]cnc2[C@H]1c1cc2ccccn2n1` [Example 642, (S)-(4-(pyrazolo[1,5-a]pyridin-2-yl)-6,7-dihydro-1H-imidazo[4,5-c]pyridin-5(4H)-yl)(5-(4-(trifluoromethyl)phenyl)-1,3,4-oxadiazol-2-yl)methanone], the AC50 fell in the range of 500 to 1000 nM.

Consider `O=C(c1nnc(-c2ccc(C(F)(F)F)cc2)o1)N1CCc2[nH]cnc2[C@@H]1c1cc2ccccn2n1` [Example 643, (R)-(4-(pyrazolo[1,5-a]pyridin-2-yl)-6,7-dihydro-1H-imidazo[4,5-c]pyridin-5(4H)-yl)(5-(4-(trifluoromethyl)phenyl)-1,3,4-oxadiazol-2-yl)methanone], for which the half-maximal activity concentration (AC50) is greater than 5000 nM.

Turning to `O=C(c1oc(-c2ccccn2)nc1C(F)F)N1CCc2[nH]cnc2[C@H]1c1cc2ccccn2n1` [Example 644, (S)-(4-(difluoromethyl)-2-(pyridin-2-yl)oxazol-5-yl)(4-(pyrazolo[1,5-a]pyridin-2-yl)-6,7-dihydro-1H-imidazo[4,5-c]pyridin-5(4H)-yl)methanone], the AC50 was less than 500 nM.

For `O=C(c1oc(-c2ccccn2)nc1C(F)F)N1CCc2[nH]cnc2[C@@H]1c1cc2ccccn2n1` [Example 645, (R)-(4-(difluoromethyl)-2-(pyridin-2-yl)oxazol-5-yl)(4-(pyrazolo[1,5-a]pyridin-2-yl)-6,7-dihydro-1H-imidazo[4,5-c]pyridin-5(4H)-yl)methanone], the AC50 fell in the range of 1000 to 5000 nM.

For the molecule `O=C(c1nnc(-c2cnn(CC(F)(F)F)c2)o1)N1CCc2[nH]cnc2[C@H]1c1cc2ccccn2n1` [Example 646, (S)-(4-(pyrazolo[1,5-a]pyridin-2-yl)-6,7-dihydro-1H-imidazo[4,5-c]pyridin-5(4H)-yl)(5-(1-(2,2,2-trifluoroethyl)-1H-pyrazol-4-yl)-1,3,4-oxadiazol-2-yl)methanone], the AC50 lay within 1000 to 5000 nM.

`O=C(c1nnc(-c2cnn(CC(F)(F)F)c2)o1)N1CCc2[nH]cnc2[C@@H]1c1cc2ccccn2n1` [Example 647, (R)-(4-(pyrazolo[1,5-a]pyridin-2-yl)-6,7-dihydro-1H-imidazo[4,5-c]pyridin-5(4H)-yl)(5-(1-(2,2,2-trifluoroethyl)-1H-pyrazol-4-yl)-1,3,4-oxadiazol-2-yl)methanone]: the AC50 was greater than 5000 nM.

For `O=C(c1nnc(-c2ccc(F)c(F)c2)o1)N1CCc2[nH]cnc2[C@H]1c1cc2ccccn2n1` [Example 648, (S)-(5-(3,4-difluorophenyl)-1,3,4-oxadiazol-2-yl)(4-(pyrazolo[1,5-a]pyridin-2-yl)-6,7-dihydro-1H-imidazo[4,5-c]pyridin-5(4H)-yl)methanone], the AC50 is less than 500 nM.

For `O=C(c1nnc(-c2ccc(F)c(F)c2)o1)N1CCc2[nH]cnc2[C@@H]1c1cc2ccccn2n1` [Example 649, (R)-(5-(3,4-difluorophenyl)-1,3,4-oxadiazol-2-yl)(4-(pyrazolo[1,5-a]pyridin-2-yl)-6,7-dihydro-1H-imidazo[4,5-c]pyridin-5(4H)-yl)methanone], the concentration at half-maximal activity (AC50) was greater than 5000 nM.

For `O=C(c1nnc(-c2cnn(C(F)F)c2)o1)N1CCc2[nH]cnc2[C@H]1c1cc2ccccn2n1` [Example 650, (S)-(5-(1-(difluoromethyl)-1H-pyrazol-4-yl)-1,3,4-oxadiazol-2-yl)(4-(pyrazolo[1,5-a]pyridin-2-yl)-6,7-dihydro-1H-imidazo[4,5-c]pyridin-5(4H)-yl)methanone], the half-maximal activity concentration (AC50) was 1000 to 5000 nM.

As for `O=C(c1nnc(-c2cnn(C(F)F)c2)o1)N1CCc2[nH]cnc2[C@@H]1c1cc2ccccn2n1` [Example 651, (R)-(5-(1-(difluoromethyl)-1H-pyrazol-4-yl)-1,3,4-oxadiazol-2-yl)(4-(pyrazolo[1,5-a]pyridin-2-yl)-6,7-dihydro-1H-imidazo[4,5-c]pyridin-5(4H)-yl)methanone], the concentration at half-maximal activity (AC50) was in the range of 1000 to 5000 nM.

On to `O=C(c1nnc(-c2ccc(F)cc2F)o1)N1CCc2[nH]cnc2[C@H]1c1cc2ccccn2n1` [Example 652, (S)-(5-(2,4-difluorophenyl)-1,3,4-oxadiazol-2-yl)(4-(pyrazolo[1,5-a]pyridin-2-yl)-6,7-dihydro-1H-imidazo[4,5-c]pyridin-5(4H)-yl)methanone], for which the AC50 is less than 500 nM.

Turning to `O=C(c1nnc(-c2ccc(F)cc2F)o1)N1CCc2[nH]cnc2[C@@H]1c1cc2ccccn2n1` [Example 653, (R)-(5-(2,4-difluorophenyl)-1,3,4-oxadiazol-2-yl)(4-(pyrazolo[1,5-a]pyridin-2-yl)-6,7-dihydro-1H-imidazo[4,5-c]pyridin-5(4H)-yl)methanone], the AC50 was greater than 5000 nM.

`Cc1cc(F)ccc1-c1nnc(C(=O)N2CCc3[nH]cnc3[C@H]2c2cc3ccccn3n2)o1` [Example 654, (S)-(5-(4-fluoro-2-methylphenyl)-1,3,4-oxadiazol-2-yl)(4-(pyrazolo[1,5-a]pyridin-2-yl)-6,7-dihydro-1H-imidazo[4,5-c]pyridin-5(4H)-yl)methanone]: the concentration at half-maximal activity (AC50) is less than 500 nM.

`O=C(c1ccnn1C(F)F)N1CCc2[nH]cnc2[C@H]1c1cc2ccccn2n1` [Example 656, (S)-(1-(difluoromethyl)-1H-pyrazol-5-yl)(4-(pyrazolo[1,5-a]pyridin-2-yl)-6,7-dihydro-1H-imidazo[4,5-c]pyridin-5(4H)-yl)methanone]: the AC50 is less than 500 nM.

Take `O=C(c1ccnn1C(F)F)N1CCc2[nH]cnc2[C@@H]1c1cc2ccccn2n1` [Example 657, (R)-(1-(difluoromethyl)-1H-pyrazol-5-yl)(4-(pyrazolo[1,5-a]pyridin-2-yl)-6,7-dihydro-1H-imidazo[4,5-c]pyridin-5(4H)-yl)methanone]: the AC50 was greater than 5000 nM.

Consider `Cn1ccc(-c2nnc(C(=O)N3CCc4[nH]cnc4[C@@H]3c3cc4ccccn4n3)o2)n1` [Example 659, (R)-(5-(1-methyl-1H-pyrazol-3-yl)-1,3,4-oxadiazol-2-yl)(4-(pyrazolo[1,5-a]pyridin-2-yl)-6,7-dihydro-1H-imidazo[4,5-c]pyridin-5(4H)-yl)methanone], for which the concentration at half-maximal activity (AC50) was in the range of 1000 to 5000 nM.

`Cn1nccc1C(=O)N1CCc2[nH]cnc2[C@H]1c1cc2ccccn2n1` [Example 660, (S)-(1-methyl-1H-pyrazol-5-yl)(4-(pyrazolo[1,5-a]pyridin-2-yl)-6,7-dihydro-1H-imidazo(4,5-c]pyridin-5(4H)-yl)methanone]: the AC50 lay within 500 to 1000 nM.

Take `Cn1nccc1C(=O)N1CCc2[nH]cnc2[C@@H]1c1cc2ccccn2n1` [Example 661, (R)-(1-methyl-1H-pyrazol-5-yl)(4-(pyrazolo[1,5-a]pyridin-2-yl)-6,7-dihydro-1H-imidazo[4,5-c]pyridin-5(4H)-yl)methanone]: the AC50 was greater than 5000 nM.

As to `Cn1cc(C(=O)N2CCc3[nH]cnc3[C@H]2c2cc3ccccn3n2)c(C(F)F)n1` [Example 662, (S)-(3-(difluoromethyl)-1-methyl-1H-pyrazol-4-yl)(4-(pyrazolo[1,5-a]pyridin-2-yl)-6,7-dihydro-1H-imidazo[4,5-c]pyridin-5(4H)-yl)methanone], the AC50 is less than 500 nM.

For `Cn1cc(C(=O)N2CCc3[nH]cnc3[C@@H]2c2cc3ccccn3n2)c(C(F)F)n1` [Example 663, (R)-(3-(difluoromethyl)-1-methyl-1H-pyrazol-4-yl)(4-(pyrazolo[1,5-a]pyridin-2-yl)-6,7-dihydro-1H-imidazo[4,5-c]pyridin-5(4H)-yl)methanone], the concentration at half-maximal activity (AC50) fell in the range of 1000 to 5000 nM.

Consider `Cn1cc(C(=O)N2CCc3[nH]cnc3[C@@H]2c2cc3ccccn3n2)c(Cl)n1` [Example 664, (R)-(3-chloro-1-methyl-1H-pyrazol-4-yl)(4-(pyrazolo[1,5-a]pyridin-2-yl)-6,7-dihydro-1H-imidazo[4,5-c]pyridin-5(4H)-yl)methanone], for which the half-maximal activity concentration (AC50) is greater than 5000 nM.

As to `Cn1cc(C(=O)N2CCc3[nH]cnc3[C@H]2c2cc3ccccn3n2)c(Cl)n1` [Example 665, (S)-(3-chloro-1-methyl-1H-pyrazol-4-yl)(4-(pyrazolo[1,5-a]pyridin-2-yl)-6,7-dihydro-1H-imidazo[4,5-c]pyridin-5(4H)-yl)methanone], the half-maximal activity concentration (AC50) was less than 500 nM.

Regarding `O=C(c1nnc(-c2ccn(C(F)F)n2)o1)N1CCc2[nH]cnc2[C@H]1c1cc2ccccn2n1` [Example 666, (S)-(5-(1-(difluoromethyl)-1H-pyrazol-3-yl)-1,3,4-oxadiazol-2-yl)(4-(pyrazolo[1,5-a]pyridin-2-yl)-6,7-dihydro-1H-imidazo[4,5-c]pyridin-5(4H)-yl)methanone], the AC50 was 500 to 1000 nM.

In the case of `O=C(c1nnc(-c2ccn(C(F)F)n2)o1)N1CCc2[nH]cnc2[C@@H]1c1cc2ccccn2n1` [Example 667, (R)-(5-(1-(difluoromethyl)-1H-pyrazol-3-yl)-1,3,4-oxadiazol-2-yl)(4-(pyrazolo[1,5-a]pyridin-2-yl)-6,7-dihydro-1H-imidazo[4,5-c)pyridin-5(4H)-yl)methanone], the AC50 was greater than 5000 nM.
